From patent US8916565B2, “Pyrrolopyrazine-spirocyclic piperidine amides as modulators of ion channels” (priority 2011, dated 2014)
pIC50: −log10 of the molar value.

Biological target: human NaV subtype, like NaV 1.7 (Homo sapiens, UniProt Q15858)
Test: E-VIPR optical membrane potential assay with electrical stimulation
Assay type: cell-based
Settings: active against one or more sodium channels; Table 3 does not name the assay or NaV subtype; read-out: Binned Activity Data (IC50)

Chain of human NaV subtype, like NaV 1.7 (Q15858 whole entry): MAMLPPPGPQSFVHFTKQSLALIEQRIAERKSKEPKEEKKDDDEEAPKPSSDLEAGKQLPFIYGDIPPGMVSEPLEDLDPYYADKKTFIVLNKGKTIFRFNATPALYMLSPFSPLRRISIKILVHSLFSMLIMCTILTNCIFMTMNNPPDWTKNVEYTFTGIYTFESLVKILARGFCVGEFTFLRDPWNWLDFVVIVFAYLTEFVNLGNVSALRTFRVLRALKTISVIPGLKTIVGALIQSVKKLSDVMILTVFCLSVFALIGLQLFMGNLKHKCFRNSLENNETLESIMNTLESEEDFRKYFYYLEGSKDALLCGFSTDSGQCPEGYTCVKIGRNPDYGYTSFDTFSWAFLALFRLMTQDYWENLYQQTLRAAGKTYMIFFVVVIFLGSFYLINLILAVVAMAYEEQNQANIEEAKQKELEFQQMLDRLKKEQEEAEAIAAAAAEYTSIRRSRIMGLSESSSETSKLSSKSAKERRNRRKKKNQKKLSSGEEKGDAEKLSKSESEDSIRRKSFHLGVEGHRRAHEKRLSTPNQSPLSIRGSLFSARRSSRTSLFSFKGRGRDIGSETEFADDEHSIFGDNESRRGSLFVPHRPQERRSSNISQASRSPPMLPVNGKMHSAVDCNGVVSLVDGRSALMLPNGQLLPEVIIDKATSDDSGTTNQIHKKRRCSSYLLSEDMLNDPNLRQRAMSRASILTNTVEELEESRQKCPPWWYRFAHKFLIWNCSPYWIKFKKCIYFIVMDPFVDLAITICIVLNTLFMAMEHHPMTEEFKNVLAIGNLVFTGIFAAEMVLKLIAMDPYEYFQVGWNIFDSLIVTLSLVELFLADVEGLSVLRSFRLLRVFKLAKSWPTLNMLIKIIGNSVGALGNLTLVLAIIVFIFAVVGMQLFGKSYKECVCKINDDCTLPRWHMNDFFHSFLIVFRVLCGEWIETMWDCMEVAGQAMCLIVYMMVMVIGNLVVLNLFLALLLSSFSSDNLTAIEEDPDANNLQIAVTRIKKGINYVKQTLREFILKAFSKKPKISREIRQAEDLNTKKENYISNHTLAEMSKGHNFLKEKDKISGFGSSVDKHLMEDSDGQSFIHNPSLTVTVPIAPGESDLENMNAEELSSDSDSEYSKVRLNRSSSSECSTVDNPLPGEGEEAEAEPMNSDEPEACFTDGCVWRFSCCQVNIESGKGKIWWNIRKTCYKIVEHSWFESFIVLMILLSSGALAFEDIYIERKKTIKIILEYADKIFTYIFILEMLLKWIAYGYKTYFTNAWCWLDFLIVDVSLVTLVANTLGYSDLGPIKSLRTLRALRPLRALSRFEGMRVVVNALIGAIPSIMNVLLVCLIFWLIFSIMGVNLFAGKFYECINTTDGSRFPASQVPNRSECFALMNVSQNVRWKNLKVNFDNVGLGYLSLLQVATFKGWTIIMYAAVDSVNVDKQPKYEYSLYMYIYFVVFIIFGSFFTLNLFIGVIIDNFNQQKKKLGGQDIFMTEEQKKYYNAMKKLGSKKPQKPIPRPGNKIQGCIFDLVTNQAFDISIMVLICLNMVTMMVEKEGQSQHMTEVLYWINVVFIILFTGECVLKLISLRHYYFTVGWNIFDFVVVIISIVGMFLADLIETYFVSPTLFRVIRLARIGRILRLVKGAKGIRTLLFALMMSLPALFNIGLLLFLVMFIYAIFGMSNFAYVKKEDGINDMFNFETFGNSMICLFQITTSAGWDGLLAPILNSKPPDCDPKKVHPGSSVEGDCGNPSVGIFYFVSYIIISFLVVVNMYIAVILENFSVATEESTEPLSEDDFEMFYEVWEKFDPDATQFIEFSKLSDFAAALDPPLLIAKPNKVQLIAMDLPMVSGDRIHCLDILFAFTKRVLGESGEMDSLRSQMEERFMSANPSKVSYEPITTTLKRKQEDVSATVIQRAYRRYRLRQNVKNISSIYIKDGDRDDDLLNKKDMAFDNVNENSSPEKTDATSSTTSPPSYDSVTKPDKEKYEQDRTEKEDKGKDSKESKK

Row | Structure (SMILES) | pIC50
1 | CCCCc1ccc(C(=O)N2CCC3(CC2)c2ccc(Cl)n2CCN3C)cc1 [Compound 275] | 5.30 to 5.70
2 | CN1CCn2c(C(F)(F)F)ccc2C12CCN(C(=O)c1cccc3cccnc13)CC2 [Compound 281] | ≥ 5.70
3 | CN1CCn2c(C(=O)C(F)(F)F)ccc2C12CCN(C(=O)c1ccc(-c3ccccc3)c(O)c1)CC2 [Compound 287] | 5.30 to 5.70
4 | COc1cc(C(=O)N2CCC3(CC2)c2ccc(C(=O)C(F)(F)F)n2CCN3C)ccc1COCCC(F)(F)F [Compound 288] | ≥ 5.70
5 | CN1CCn2c(ccc2C(F)(F)C(F)(F)F)C12CCN(C(=O)c1ccc(S(=O)(=O)NC3CC3)cc1)CC2 [Compound 289] | ≥ 5.70
6 | CCC(c1ccc(F)cc1)n1cc(C(=O)N2CCC3(CC2)c2ccc(C(F)(F)F)n2CCN3C)nn1 (centres unmarked) [Compound 293] | < 5.30
7 | Cc1cc(C(=O)N2CCC3(CC2)c2ccc(C(=O)C(F)(F)F)n2CCN3C)ccc1-c1ccn(C)n1 [Compound 295] | < 5.30
8 | CCOc1ncccc1C(=O)N1CCC2(CC1)c1ccc(C(F)(F)F)n1CCN2C [Compound 297] | ≥ 5.70
9 | CCS(=O)(=O)c1ccc(C(=O)N2CCC3(CC2)c2ccc(C(F)(F)F)n2CCN3C)cc1C [Compound 298] | ≥ 5.70
10 | COc1cc(C(=O)N2CCC3(CC2)c2ccc(C(F)(F)C(F)(F)F)n2CCN3C)ccc1OC(C)(C)C [Compound 299] | ≥ 5.70
11 | C[C@H]1Cn2c(C(=O)C(F)(F)F)ccc2C2(CCN(C(=O)c3ccc(S(=O)(=O)C(C)(C)C)cc3)CC2)N1C [Compound 300] | ≥ 5.70
12 | CN1CCn2c(Cl)ccc2C12CCN(C(=O)c1ccc(C3(O)CCCC3)cc1)CC2 [Compound 301] | < 5.30
13 | CN1CCn2c(ccc2S(C)(=O)=O)C12CCN(C(=O)c1ccc(C3CCCCC3)cc1)CC2 [Compound 302] | 5.30 to 5.70
14 | Cc1cc(C(=O)N2CCC3(CC2)c2ccc(C(=O)C(F)(F)F)n2CCN3C)ccc1-c1c[nH]nc1C(F)(F)F [Compound 303] | < 5.30
15 | CN1CCn2c(C(F)(F)F)ccc2C12CCN(C(=O)c1cccnc1N1CCCC1)CC2 [Compound 305] | ≥ 5.70
16 | Cc1cc(C(=O)N2CCC3(CC2)c2ccc(C(F)(F)F)n2CCN3C2CC2)ccc1C(C)(C)O [Compound 307] | ≥ 5.70
17 | CC1CCN(S(=O)(=O)c2ccc(C(=O)N3CCC4(CC3)c3ccc(Cl)n3CCN4C)cc2)CC1 [Compound 310] | < 5.30

Row | Structure (SMILES) | pIC50
18 | CN1CCn2c(C(F)(F)F)cc(F)c2C12CCN(C(=O)c1ccc(CC(C)(C)O)cc1)CC2 [Compound 313] | ≥ 5.70
19 | C=C(C)c1ccc(C(=O)N2CCC3(CC2)c2ccc(C(F)(F)F)n2CCN3C)cc1C [Compound 316] | ≥ 5.70
20 | Cc1ccc(C(=O)N2CCC3(CC2)c2ccc(C(F)(F)F)n2CCN3C)cc1 [Compound 319] | < 5.30
21 | COc1ccc(C(=O)N2CCC3(CC2)c2ccc(C(F)(F)F)n2CCN3C)cc1OC [Compound 321] | < 5.30
22 | Cc1nc(C(=O)N2CCC3(CC2)c2ccc(C(=O)C(F)(F)F)n2CCN3C)ccc1O [Compound 322] | ≥ 5.70
23 | CN1CCn2c(Cl)ccc2C12CCN(C(=O)c1ccc(OC(F)(F)F)cc1)CC2 [Compound 323] | < 5.30
24 | Cc1cc(C(=O)N2CCC3(CC2)c2ccc(C(F)(F)C(F)(F)F)n2CCN3C)ccc1S(=O)(=O)C(C)C [Compound 326] | ≥ 5.70
25 | CN1CCn2c(Cl)ccc2C12CCN(C(=O)c1ccc(OCC(F)(F)F)cc1)CC2 [Compound 330] | 5.30 to 5.70
26 | CCc1ccc(C(=O)N2CCC3(CC2)c2ccc(C(=O)C(F)(F)F)n2CCN3C)nc1 [Compound 331] | < 5.30
27 | Cc1cc(C(=O)N2CCC3(CC2)c2ccc(C(F)(F)F)n2CCN3C2CC2)ccc1OCC(C)(C)O [Compound 332] | ≥ 5.70
28 | CN1CCn2c(Cl)ccc2C12CCN(C(=O)c1ccc(Cc3ccccc3)cc1)CC2 [Compound 334] | < 5.30
29 | Cc1cc(C(=O)N2CCC3(CC2)c2ccc(C(F)(F)F)n2CCN3C)ccc1OCCO [Compound 335] | ≥ 5.70
30 | CCNS(=O)(=O)c1ccc(C(=O)N2CCC3(CC2)c2ccc(C(F)(F)F)n2CCN3C)cc1C [Compound 343] | ≥ 5.70
31 | CCc1ccc(C(=O)N2CCC3(CC2)c2ccc(C(F)(F)F)n2CCN3C)nc1 [Compound 345] | < 5.30
32 | CN1CCn2c(C(F)(F)F)ccc2C12CCN(C(=O)c1cccnc1N1CCCCC1)CC2 [Compound 346] | ≥ 5.70
33 | Cc1cc(C(=O)N2CCC3(CC2)c2ccc(C(F)(F)F)n2CCN3C)ccc1S(=O)(=O)N(C)C [Compound 347] | ≥ 5.70

The remaining lines, values ahead:

Row | pIC50 | Structure (SMILES)
34 | ≥ 5.70 | COc1ccc(C(=O)N2CCC3(CC2)c2ccc(C(=O)C4(C)CC4)n2CCN3C)cc1C [Compound 276]
35 | ≥ 5.70 | CC(=O)c1ccc2n1CC(C)(C)NC21CCN(C(=O)c2ccc(OC(C)C)c(Cl)c2)CC1 [Compound 277]
36 | < 5.30 | CCc1ccc(C(=O)N2CCC3(CC2)c2ccc(C(C)=O)n2CCN3C)cc1 [Compound 278]
37 | ≥ 5.70 | Cc1cc(C(=O)N2CCC3(CC2)c2ccc(CC(F)(F)F)n2CCN3C)ccc1OC(C)C [Compound 279]
38 | ≥ 5.70 | Cc1cc(C(=O)N2CCC3(CC2)NCC(C)(C)n2c(C(F)(F)F)ccc23)ccc1OC(C)C [Compound 280]
39 | ≥ 5.70 | COc1ccc(C(=O)N2CCC3(CC2)c2ccc(C(=O)C4(C)CC4)n2CCN3C)cc1C(F)(F)F [Compound 282]
40 | 5.30 to 5.70 | CNS(=O)(=O)c1ccc(C(=O)N2CCC3(CC2)NCCn2c(C(F)(F)F)ccc23)cc1C [Compound 283]
41 | ≥ 5.70 | CC(C)CCOc1ccc(C(=O)N2CCC3(CC2)NCC(C)n2c(C(=O)C(F)(F)F)ccc23)cc1 (centres unmarked) [Compound 284]
42 | 5.30 to 5.70 | CC(=O)c1ccc2n1CCN(C)C21CCN(C(=O)c2ccc(OC(C)C)c(C#N)c2)CC1 [Compound 285]
43 | ≥ 5.70 | CC(=O)c1ccc2n1CC(C)(C)NC21CCN(C(=O)c2ccc(OC(C)C)cc2F)CC1 [Compound 286]
44 | ≥ 5.70 | CC(C)c1ccc(C(=O)N2CCC3(CC2)c2ccc(C(=O)C(F)(F)F)n2CCN3C)cc1 [Compound 290]
45 | ≥ 5.70 | Cc1cc(C(=O)N2CCC3(CC2)c2ccc(C(=O)C(F)(F)F)n2CCN3C)cnc1OC(C)C [Compound 291]
46 | < 5.30 | CCCc1ccc(C(=O)N2CCC3(CC2)c2ccc(C(C)=O)n2CCN3C)cc1 [Compound 292]
47 | ≥ 5.70 | CC[C@@H](C)Oc1ccc(C(=O)N2CCC3(CC2)c2ccc(Cl)n2CCN3C)cc1OC [Compound 294]
48 | ≥ 5.70 | CCOC(=O)N1CCn2c(C#N)ccc2C12CCN(C(=O)c1ccc(OC(C)C)c(Cl)c1)CC2 [Compound 296]
49 | ≥ 5.70 | CC(=O)c1ccc2n1CCN(C)C21CCN(C(=O)c2ccc(-c3ccccc3)c(C)c2)CC1 [Compound 304]
50 | 5.30 to 5.70 | COc1cc(C(=O)N2CCC3(CC2)N[C@@H](C)Cn2c(C(F)(F)F)ccc23)ccc1OC(C)C [Compound 306]
51 | ≥ 5.70 | Cc1cc(C(=O)N2CCC3(CC2)N[C@H](C)Cn2c(C(F)(F)F)ccc23)ccc1OC(C)C [Compound 308]
52 | < 5.30 | CC(=O)c1ccc2n1CCN(C)C21CCN(C(=O)c2ccc(C3(O)CCCC3)cc2)CC1 [Compound 309]
53 | ≥ 5.70 | Cc1cc(C(=O)N2CCC3(CC2)c2ccc(C(=O)C(F)(F)F)n2C(C)CN3C)ccc1C(C)(C)O (centres unmarked) [Compound 311]
54 | ≥ 5.70 | COc1ccc(C(=O)N2CCC3(CC2)NC(C)(C)Cn2c(C(=O)C(F)(F)F)ccc23)c(F)c1 [Compound 312]

Row | pIC50 | Structure (SMILES)
55 | ≥ 5.70 | COc1ccc(C(=O)N2CCC3(CC2)c2ccc(C(=O)C(C)(C)C)n2CCN3C)cc1C [Compound 314]
56 | ≥ 5.70 | COc1cc(C(=O)N2CCC3(CC2)c2ccc(C(=O)C(F)(F)F)n2CCN3C)ccc1OC(C)C [Compound 315]
57 | 5.30 to 5.70 | COc1cc(C(=O)N2CCC3(CC2)c2ccc(C(F)(F)F)n2CCN3C2CCC2)ccc1OC(C)C [Compound 317]
58 | ≥ 5.70 | Cc1cc(C(=O)N2CCC3(CC2)NC(C)(C)Cn2c(C(=O)C(F)(F)F)ccc23)ccc1O [Compound 318]
59 | ≥ 5.70 | COc1cc(C(=O)N2CCC3(CC2)NC(C)Cn2c(C(F)(F)F)ccc23)ccc1OC(C)C (centres unmarked) [Compound 320]
60 | ≥ 5.70 | CC(C)Oc1ccc(C(=O)N2CCC3(CC2)NCC(C)n2c(C(=O)C(F)(F)F)ccc23)cc1Cl (centres unmarked) [Compound 324]
61 | ≥ 5.70 | CC(C)Oc1ccc(C(=O)N2CCC3(CC2)c2ccc(C(=O)C(F)(F)F)n2C(C)CN3C)cc1Cl (centres unmarked) [Compound 325]
62 | ≥ 5.70 | COc1cc(C(=O)N2CC[C@@]3(c4ccc(C(F)(F)F)n4CCN3C)[C@H](F)C2)ccc1OC(C)C [Compound 327]
63 | < 5.30 | COc1cc(C(=O)N2CC[C@]3(C[C@H]2C)c2ccc(C(F)(F)F)n2CCN3C)ccc1OC(C)C [Compound 328]
64 | 5.30 to 5.70 | CC(=O)c1ccc2n1CCN(C)C21CCN(C(=O)c2ccc(OCC3CC3)c(F)c2)CC1 [Compound 329]
65 | ≥ 5.70 | Cc1cc(C(=O)N2CCC3(CC2)c2ccc(C(F)(F)F)n2CCN3C2CC2)ccc1OC(C)C [Compound 333]
66 | ≥ 5.70 | COCCN1CCn2c(C(F)(F)F)ccc2C12CCN(C(=O)c1ccc(OC(C)C)c(CO)c1)CC2 [Compound 336]
67 | ≥ 5.70 | CC(C)Oc1ccc(C(=O)N2CCC3(CC2)NCC(C)(C)n2c(C(F)(F)F)ccc23)cc1F [Compound 337]
68 | ≥ 5.70 | COc1ccc(C(=O)N2CCC3(CC2)c2ccc(C(=O)C(C)C)n2CCN3C)cc1C [Compound 338]
69 | ≥ 5.70 | CC(C)Cc1ccc(C(=O)N2CCC3(CC2)c2ccc(C(=O)C(F)(F)F)n2CCN3C)cc1 [Compound 339]
70 | ≥ 5.70 | Cc1cc(C(=O)N2CCC3(CC2)c2c(Br)cc(C(F)(F)F)n2CCN3C)ccc1OC(C)C [Compound 340]
71 | ≥ 5.70 | COc1ccc(C(=O)N2CCC3(CC2)NCC(C)n2c(C(=O)C(F)(F)F)ccc23)cc1Cl (centres unmarked) [Compound 341]
72 | < 5.30 | CC(=O)c1ccc2n1CCN(C)C21CCN(C(=O)c2ccc(OC(C)C)cc2)CC1 [Compound 342]
73 | 5.30 to 5.70 | CC(=O)c1cc2n(c1)CC(C)(C)NC21CCN(C(=O)c2ccc(C3CCCCC3)cc2)CC1 [Compound 344]
74 | ≥ 5.70 | COc1cc(C(=O)N2CCC3(CC2)c2c(Br)cc(C(F)(F)F)n2CCN3C)ccc1OC(C)C [Compound 348]
